Consider 18 molecules from publication PMC3240716 (Journal of medicinal chemistry, 2011).

Structures are written as SMILES. Entries after “also recorded” stand apart in the source; their conditions may differ.

One experiment concerns the target Hα4β2 nAChRs (Homo sapiens, UniProt P17787+P43681). Nature of the experiment: Calcium accumulation assay, HEK ts201 cells stably expressing Hα4β2 nAChRs. Format: cell-based. The conditions noted are these: for effect / activity on Hα4β2 nAChRs: up to 100 µM.
The target of the next experiment is Hα3β4 nAChRs (Homo sapiens, UniProt P30926+P32297). Nature of the experiment: Calcium accumulation assay, HEK ts201 cells stably expressing Hα3β4 nAChRs. In kind it is cell-based. The settings on record: for effect / activity on Hα3β4 nAChRs: up to 100 µM.
The mark [1] stands for this setting: 30 µM compound, competitive vs non-competitive test, n=4.
Where [2] appears, read: approximate, concentration used in Figure 1.

Sequence of Hα4β2 nAChRs (P43681 29-627 limits assumed): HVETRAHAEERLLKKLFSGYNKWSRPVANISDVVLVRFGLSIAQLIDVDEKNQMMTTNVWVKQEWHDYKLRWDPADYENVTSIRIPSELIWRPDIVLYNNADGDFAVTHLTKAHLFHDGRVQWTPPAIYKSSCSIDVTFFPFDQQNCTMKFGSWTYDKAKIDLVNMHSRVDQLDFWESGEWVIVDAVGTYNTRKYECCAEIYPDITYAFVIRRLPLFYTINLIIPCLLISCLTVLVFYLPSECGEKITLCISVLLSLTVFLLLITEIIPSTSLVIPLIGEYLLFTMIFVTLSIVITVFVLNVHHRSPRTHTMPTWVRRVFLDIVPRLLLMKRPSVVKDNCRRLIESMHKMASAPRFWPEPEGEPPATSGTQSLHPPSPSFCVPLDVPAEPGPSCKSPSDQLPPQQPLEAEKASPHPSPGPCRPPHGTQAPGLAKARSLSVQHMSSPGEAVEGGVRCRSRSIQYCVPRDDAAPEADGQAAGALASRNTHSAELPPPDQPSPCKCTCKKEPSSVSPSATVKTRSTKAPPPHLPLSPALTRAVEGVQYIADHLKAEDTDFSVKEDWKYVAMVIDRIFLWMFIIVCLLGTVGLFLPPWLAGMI
Sequence of Hα4β2 nAChRs (P17787 26-502): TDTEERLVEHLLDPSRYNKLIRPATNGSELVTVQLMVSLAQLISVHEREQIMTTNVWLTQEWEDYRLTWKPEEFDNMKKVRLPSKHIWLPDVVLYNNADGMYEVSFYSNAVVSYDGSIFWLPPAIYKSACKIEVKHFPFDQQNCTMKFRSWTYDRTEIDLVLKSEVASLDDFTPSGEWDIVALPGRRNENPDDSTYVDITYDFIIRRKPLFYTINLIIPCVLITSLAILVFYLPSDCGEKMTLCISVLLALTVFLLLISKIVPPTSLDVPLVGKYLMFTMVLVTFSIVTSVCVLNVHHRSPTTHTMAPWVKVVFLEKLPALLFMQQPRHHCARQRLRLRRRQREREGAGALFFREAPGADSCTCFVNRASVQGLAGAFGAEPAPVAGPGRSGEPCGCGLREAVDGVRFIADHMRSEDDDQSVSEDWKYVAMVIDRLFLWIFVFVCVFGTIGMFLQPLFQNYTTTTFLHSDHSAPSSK
Sequence of Hα3β4 nAChRs (P32297 32-505): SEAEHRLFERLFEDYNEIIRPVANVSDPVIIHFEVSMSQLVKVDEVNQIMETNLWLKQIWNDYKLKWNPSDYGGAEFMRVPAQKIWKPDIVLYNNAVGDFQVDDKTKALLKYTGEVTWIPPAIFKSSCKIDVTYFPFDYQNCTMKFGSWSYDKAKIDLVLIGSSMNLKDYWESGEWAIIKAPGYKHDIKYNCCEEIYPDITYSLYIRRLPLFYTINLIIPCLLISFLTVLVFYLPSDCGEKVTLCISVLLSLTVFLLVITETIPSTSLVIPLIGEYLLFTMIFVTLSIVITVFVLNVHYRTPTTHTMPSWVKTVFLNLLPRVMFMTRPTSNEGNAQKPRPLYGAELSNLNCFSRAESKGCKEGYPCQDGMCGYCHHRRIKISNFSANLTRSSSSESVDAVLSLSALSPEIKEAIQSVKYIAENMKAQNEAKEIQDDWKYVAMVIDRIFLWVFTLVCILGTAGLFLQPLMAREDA
Sequence of Hα3β4 nAChRs (P30926 22-498): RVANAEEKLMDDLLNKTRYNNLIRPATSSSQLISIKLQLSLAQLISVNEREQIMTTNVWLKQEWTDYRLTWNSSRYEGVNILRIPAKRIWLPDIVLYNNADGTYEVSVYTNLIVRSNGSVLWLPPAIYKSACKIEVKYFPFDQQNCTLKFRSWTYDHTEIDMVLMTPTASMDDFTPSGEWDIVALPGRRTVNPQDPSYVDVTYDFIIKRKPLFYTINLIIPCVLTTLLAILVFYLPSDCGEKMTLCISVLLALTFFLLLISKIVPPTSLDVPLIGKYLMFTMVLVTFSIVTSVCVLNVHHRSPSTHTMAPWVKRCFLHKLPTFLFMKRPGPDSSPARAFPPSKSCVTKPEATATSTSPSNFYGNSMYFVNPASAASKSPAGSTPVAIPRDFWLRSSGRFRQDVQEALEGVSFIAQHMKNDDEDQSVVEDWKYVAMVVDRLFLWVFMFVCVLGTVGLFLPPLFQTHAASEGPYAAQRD

As for `O=C(CN1CCN(S(=O)(=O)c2ccc(F)cc2)CC1)Nc1ccccc1F` [Compound 1, N-(2-fluorophenyl)-2-(4-((4-fluorophenyl)sulfonyl)piperazin-1-yl)acetamide], the “effect on epibatidine concentration-response, Hα4β2 nAChRs” value at Hα4β2 nAChRs (setting [1]) was “reduced the maximum efficacy”. For the same molecule, on Hα4β2 nAChRs (setting [2]), the “IC70, Hα4β2 nAChRs” value is around 30 µM. At Hα3β4 nAChRs (setting [1]), the “effect on epibatidine concentration-response, Hα3β4 nAChRs” value was “reduced the maximum efficacy”. Further, at Hα3β4 nAChRs (setting [2]), the “IC70, Hα3β4 nAChRs” value was around 30 µM.
Consider `O=S(=O)(c1ccc(F)cc1)N1CCNCC1` [Compound 3, 1-([4-fluorophenyl]sulfonyl)piperazine], for which the “effect / activity on Hα4β2 nAChRs” value at Hα4β2 nAChRs is reported as “no effect”. In addition, the “effect / activity on Hα3β4 nAChRs” value at Hα3β4 nAChRs is “no effect”.
On to `O=C(CN1CCN(S(=O)(=O)c2ccc(F)cc2)CC1)Nc1ccc2[nH]ncc2c1` [Compound 11, 2-(4-((4-fluorophenyl)sulfonyl)piperazin-1-yl)-N-(1H-indazol-5-yl)acetamide], for which the “change in potency for Hα4β2 nAChRs” value at Hα4β2 nAChRs (compared to lead compound 1) is recorded as “slight increase”. The “fold decrease in potency for Hα3β4 nAChRs” value on Hα3β4 nAChRs (compared to lead compound 1) was 3 fold.
`O=C(CN1CCN(S(=O)(=O)c2ccc(F)cc2)CC1)Nc1cc[nH]n1` [Compound 12, 2-(4-((4-fluorophenyl)sulfonyl)piperazin-1-yl)-N-(1H-pyrazol-3-yl)acetamide]: on Hα4β2 nAChRs (compared to lead compound 1), the “change in potency for Hα4β2 nAChRs” value was “significant decrease”. Further, the “effect / activity on Hα4β2 nAChRs” value at Hα4β2 nAChRs is reported as “abolished activity; also recorded: loss of activity”. In addition, at Hα3β4 nAChRs (compared to lead compound 1), the “change in potency for Hα3β4 nAChRs” value was “significant decrease”. Besides, the “effect / activity on Hα3β4 nAChRs” value at Hα3β4 nAChRs is given as “abolished activity; also recorded: loss of activity”.
As to `COc1ccc(NC(=O)CN2CCN(S(=O)(=O)c3ccc(F)cc3)CC2)cc1` [Compound 13, 2-(4-((4-fluorophenyl)sulfonyl)piperazin-1-yl)-N-(4-methoxyphenyl)acetamide], on Hα4β2 nAChRs (compared to lead compound 1), the “fold decrease in potency for Hα4β2 nAChRs” value came out at 2 fold. Moreover, the “fold decrease in potency for Hα3β4 nAChRs” value on Hα3β4 nAChRs (compared to lead compound 1) amounted to 3 fold.
With `O=C(CN1CCN(S(=O)(=O)c2ccc(F)cc2)CC1)Nc1ccc(F)cc1` [Compound 14, N-(4-fluorophenyl)-2-(4-((4-fluorophenyl)sulfonyl)-piperazin-1-yl)acetamide], at Hα4β2 nAChRs (compared to lead compound 1), the “change in potency for Hα4β2 nAChRs” value was “no significant change”. The “change in potency for Hα3β4 nAChRs” value at Hα3β4 nAChRs (compared to lead compound 1) is “no significant change”.
Consider `O=C(CN1CCN(S(=O)(=O)c2ccc(F)cc2)CC1)Nc1ccccc1` [Compound 15, 2-(4-((4-fluorophenyl)sulfonyl)piperazin-1-yl)-N-phenylacetamide], for which the “change in potency for Hα4β2 nAChRs” value at Hα4β2 nAChRs (compared to lead compound 1) is “no significant change”. In addition, the “fold decrease in potency for Hα3β4 nAChRs” value on Hα3β4 nAChRs (compared to lead compound 1) stood at 2 fold.
Take `O=C(CN1CCN(S(=O)(=O)c2ccccc2F)CC1)Nc1ccccc1F` [Compound 16, N-(2-fluorophenyl)-2-(4-((2-fluorophenyl)sulfonyl)-piperazin-1-yl)acetamide]: the “change in potency for Hα4β2 nAChRs” value on Hα4β2 nAChRs (compared to lead compound 1) is on record as “no significant change”.
Turning to `O=C(CN1CCN(S(=O)(=O)c2cccnc2)CC1)Nc1ccccc1F` [Compound 17, N-(2-fluorophenyl)-2-(4-(pyridin-3-ylsulfonyl)piperazin-1-yl)acetamide], on Hα4β2 nAChRs (compared to lead compound 1), the “fold decrease in potency for Hα4β2 nAChRs” value turned out to be 2 fold. Moreover, on Hα3β4 nAChRs (compared to lead compound 1), the “fold decrease in potency for Hα3β4 nAChRs” value is reported as 5 fold.
As to `O=C(CN1CCN(S(=O)(=O)c2ccccc2)CC1)Nc1ccccc1F` [Compound 18, N-(2-fluorophenyl)-2-(4-(phenylsulfonyl)piperazin-1-yl)acetamide], the “fold increase in potency for Hα4β2 nAChRs” value at Hα4β2 nAChRs (compared to lead compound 1) worked out at 2 fold. In addition, on Hα3β4 nAChRs (compared to lead compound 1), the “fold increase in potency for Hα3β4 nAChRs” value is 2 fold.
Turning to `COc1ccc(S(=O)(=O)N2CCN(CC(=O)Nc3ccccc3F)CC2)cc1` [Compound 19, N-(2-fluorophenyl)-2-(4-((4-methoxyphenyl)sulfonyl)-piperazin-1-yl)acetamide], the “change in potency for Hα4β2 nAChRs” value at Hα4β2 nAChRs (compared to lead compound 1) is given as “no significant change”. Further, the “change in potency for Hα3β4 nAChRs” value on Hα3β4 nAChRs (compared to lead compound 1) is given as “no significant change”.
Turning to `O=C(CN1CCN(S(=O)(=O)c2ccccc2F)CC1)Nc1ccc(F)cc1` [Compound 20, N-(4-fluorophenyl)-2-(4-((2-fluorophenyl)sulfonyl)-piperazin-1-yl)acetamide], the “change in potency for Hα4β2 nAChRs” value on Hα4β2 nAChRs (compared to analog 16) is listed as “no change”. The “fold increase in potency for Hα3β4 nAChRs” value at Hα3β4 nAChRs (compared to analog 16) worked out at 6 fold.
With `COc1ccc(NC(=O)CN2CCN(S(=O)(=O)c3ccccc3F)CC2)cc1` [Compound 21, 2-(4-((2-fluorophenyl)sulfonyl)piperazin-1-yl)-N-(4-methoxyphenyl)acetamide], the “fold decrease in potency for Hα4β2 nAChRs” value at Hα4β2 nAChRs (compared to analog 16) is 2 fold. In addition, the “fold increase in potency for Hα3β4 nAChRs” value at Hα3β4 nAChRs (compared to analog 16) worked out at 4 fold.
Regarding `COC(=O)c1ccc(NC(=O)CN2CCN(S(=O)(=O)c3ccccc3F)CC2)cc1` [Compound 22, methyl 4-(2-(4-((2-fluorophenyl)sulfonyl)piperazin-1-yl)acetamido)benzoate], the “change in potency for Hα4β2 nAChRs” value on Hα4β2 nAChRs (compared to analog 16) is on record as “no significant change”. Further, the “fold increase in potency for Hα3β4 nAChRs” value on Hα3β4 nAChRs (compared to analog 16) is on record as 8 fold.
`O=C(CN1CCN(S(=O)(=O)c2ccccc2F)CC1)Nc1ccc(C(=O)O)cc1` [Compound 23, 4-(2-(4-((2-fluorophenyl)sulfonyl)piperazin-1-yl)acetamido)benzoic acid]: on Hα4β2 nAChRs, the “effect / activity on Hα4β2 nAChRs” value is recorded as “loss of activity”. The “effect / activity on Hα3β4 nAChRs” value at Hα3β4 nAChRs is on record as “loss of activity”.
As to `O=C(CN1CCN(S(=O)(=O)c2ccccc2F)CC1)Nc1cc[nH]n1` [Compound 24, 2-(4-((2-fluorophenyl)sulfonyl)piperazin-1-yl)-N-(1H-pyrazol-3-yl)acetamide], the “effect / activity on Hα4β2 nAChRs” value on Hα4β2 nAChRs is listed as “loss of activity”. In addition, the “effect / activity on Hα3β4 nAChRs” value on Hα3β4 nAChRs is on record as “loss of activity”.
Take `COc1ccc(NC(=O)CN2CCN(S(=O)(=O)c3cccnc3)CC2)cc1` [Compound 26, N-(4-methoxyphenyl)-2-(4-(pyridin-3-ylsulfonyl)-piperazin-1-yl)acetamide]: the “change in potency for Hα4β2 nAChRs” value at Hα4β2 nAChRs (compared to lead compound 1) is listed as “significant decrease”. For the same molecule, the “change in potency for Hα3β4 nAChRs” value on Hα3β4 nAChRs (compared to lead compound 1) was “significant decrease”.
Take `COc1ccc(S(=O)(=O)N2CCN(CC(=O)Nc3ccc(F)cc3)CC2)cc1` [Compound 28, N-(4-fluorophenyl)-2-(4-((4-methoxyphenyl)sulfonyl)-piperazin-1-yl)acetamide]: the “fold decrease in potency for Hα4β2 nAChRs” value at Hα4β2 nAChRs (compared to lead compound 1) is 2 fold. Further, at Hα3β4 nAChRs (compared to lead compound 1), the “fold decrease in potency for Hα3β4 nAChRs” value came to 2 fold.
